Measured values published in PubChem BioAssay AID328 (DTP/NCI, 2004).
Where “and” joins values, the source holds several entries; their conditions need not be identical. Identical values can stand only once. Inconclusive results and toxic doses are left out.

System: BDF1 mice, P388 leukemia ip, median survival T/C
Experiment: NCI In Vivo Anticancer Drug Screen. Data for tumor model P388 Leukemia (intraperitoneal) in B6D2F1 (BDF1) mice
Settings: endpoint: median survival time, higher = longer survival
Procedure, shortened: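 Reported as T/C, where T is the survival measurement in dosed animals and C the same measurement in vehicle controls.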

[1] = dose: 100.0 mg/kg/injection, schedule: Q04DX003 (ip), vehicle: Klucel (hydroxypropylcellulose) (HPC)
[2] = dose: 200.0 mg/kg/injection, schedule: Q04DX003 (ip), vehicle: Klucel (hydroxypropylcellulose) (HPC)
[3] = dose: 400.0 mg/kg/injection, schedule: Q04DX003 (ip), vehicle: Klucel (hydroxypropylcellulose) (HPC)
[4] = dose: 50.0 mg/kg/injection, schedule: Q01DX009 (ip), vehicle: saline with Tween-80
[5] = dose: 200.0 mg/kg/injection, schedule: Q01DX009 (ip), vehicle: saline with Tween-80
[6] = dose: 5.0 mg/kg/injection, schedule: Q04DX003 (ip), vehicle: saline with Tween-80

CC1(O)CCC2C3CCC4CC(=O)CCC4(C)C3(F)C(O)CC21C (centres undefined)
T/C (dose: 100.0 mg/kg/injection, schedule: Q01DX001 (ip), vehicle: saline): 100 % of control
T/C (dose: 100.0 mg/kg/injection, schedule: Q01DX009 (ip), vehicle: saline): 90 % of control
T/C (dose: 100.0 mg/kg/injection, schedule: Q04DX003 (ip), vehicle: saline): 104 % of control
T/C (dose: 200.0 mg/kg/injection, schedule: Q01DX001 (ip), vehicle: saline): 86 % of control
T/C (dose: 200.0 mg/kg/injection, schedule: Q01DX009 (ip), vehicle: saline): 109 % of control
T/C (dose: 200.0 mg/kg/injection, schedule: Q04DX003 (ip), vehicle: saline): 104 % of control
T/C (dose: 400.0 mg/kg/injection, schedule: Q01DX001 (ip), vehicle: saline): 95 % of control
T/C (dose: 400.0 mg/kg/injection, schedule: Q01DX009 (ip), vehicle: saline): 113 % of control
T/C (dose: 400.0 mg/kg/injection, schedule: Q04DX003 (ip), vehicle: saline): 104 % of control

CCc1cccc2c(NCCCCCCNc3c4ccccc4nc4c(CC)cccc34)c3ccccc3nc12
T/C (dose: 0.31 mg/kg/injection, schedule: Q01DX009 (ip), vehicle: lactic acid): 108 % of control
T/C (dose: 0.62 mg/kg/injection, schedule: Q01DX009 (ip), vehicle: lactic acid): 103 % of control
T/C (dose: 5.0 mg/kg/injection, schedule: Q01DX009 (ip), vehicle: lactic acid): 173 % of control

CN(C)c1ccc(Cc2ccc(N(C)C)cc2[N+](=O)[O-])c([N+](=O)[O-])c1
T/C [1]: 104 % of control
T/C [2]: 100 % of control
T/C [3]: 95 % of control

CC(=O)Nc1ccc(S(=O)(=O)Oc2ccc([N+](=O)[O-])cc2)cc1
T/C (dose: 1.56 mg/kg/injection, schedule: Q01DX009 (ip), vehicle: saline): 96 % of control
T/C (dose: 3.12 mg/kg/injection, schedule: Q01DX009 (ip), vehicle: saline): 112 % of control
T/C (dose: 6.25 mg/kg/injection, schedule: Q01DX009 (ip), vehicle: saline): 107 % of control
T/C (dose: 12.5 mg/kg/injection, schedule: Q01DX009 (ip), vehicle: saline): 93 % of control
T/C (dose: 25.0 mg/kg/injection, schedule: Q01DX009 (ip), vehicle: saline): 92 % of control and 103 % of control

COC1/C=C\OC2(C)Oc3c(C)c(O)c4c(c3C2=O)C(=O)C=C(NC(=O)C(C)=C/C=C\C(C)C(O)C(C)C2OC(C)(C)OC(C1C)C2C)C4=O (centres undefined)
T/C [4]: 103 % of control
T/C (dose: 100.0 mg/kg/injection, schedule: Q01DX009 (ip), vehicle: saline with Tween-80): 100 % of control
T/C [5]: 93 % of control

Cc1c2ccc3ccccc3c2c[n+]2ccccc12
T/C (dose: 5.0 mg/kg/injection, schedule: Q01DX009 (ip), vehicle: saline with Tween-80): 118 % of control
T/C [6]: 108 % of control
T/C (dose: 10.0 mg/kg/injection, schedule: Q01DX009 (ip), vehicle: saline with Tween-80): 86 % of control
T/C (dose: 10.0 mg/kg/injection, schedule: Q04DX003 (ip), vehicle: saline with Tween-80): 108 % of control
T/C (dose: 20.0 mg/kg/injection, schedule: Q04DX003 (ip), vehicle: saline with Tween-80): 116 % of control

CCOC1=C(C#N)CC2(CC1)c1ccccc1-c1ccccc12
T/C (dose: 100.0 mg/kg/injection, schedule: Q04DX003 (ip), vehicle: saline with Tween-80): 95 % of control
T/C (dose: 200.0 mg/kg/injection, schedule: Q04DX003 (ip), vehicle: saline with Tween-80): 95 % of control
T/C (dose: 400.0 mg/kg/injection, schedule: Q04DX003 (ip), vehicle: saline with Tween-80): 91 % of control

CCOC(=O)CCOc1ccccc1N(CCCl)CCCl
T/C (dose: 0.66 mg/kg/injection, schedule: Q04DX003 (ip), vehicle: other): 100 % of control
T/C (dose: 1.0 mg/kg/injection, schedule: Q04DX003 (ip), vehicle: other): 104 % of control
T/C (dose: 1.5 mg/kg/injection, schedule: Q04DX003 (ip), vehicle: other): 104 % of control
T/C (dose: 1.56 mg/kg/injection, schedule: Q04DX003 (ip), vehicle: other): 154 % of control
T/C (dose: 2.25 mg/kg/injection, schedule: Q04DX003 (ip), vehicle: other): 114 % of control
T/C (dose: 3.0 mg/kg/injection, schedule: Q04DX003 (ip), vehicle: saline sonified): 100 % of control
T/C (dose: 3.13 mg/kg/injection, schedule: Q04DX003 (ip), vehicle: other): 181 % of control
T/C (dose: 3.5 mg/kg/injection, schedule: Q04DX003 (ip), vehicle: saline with Tween-80): 172 % of control
T/C (dose: 5.2 mg/kg/injection, schedule: Q04DX003 (ip), vehicle: saline with Tween-80): 190 % of control
T/C (dose: 6.0 mg/kg/injection, schedule: Q04DX003 (ip), vehicle: saline sonified): 100 % of control
T/C (dose: 9.0 mg/kg/injection, schedule: Q04DX003 (ip), vehicle: saline sonified): 100 % of control
T/C (dose: 11.0 mg/kg/injection, schedule: Q04DX003 (ip), vehicle: other): 227 % of control
T/C (dose: 12.0 mg/kg/injection, schedule: Q01DX009 (ip), vehicle: saline): 152 % of control
T/C (dose: 12.0 mg/kg/injection, schedule: Q04DX003 (ip), vehicle: saline): 156 % of control
T/C (dose: 12.5 mg/kg/injection, schedule: Q04DX003 (ip), vehicle: other): 222 % of control
T/C (dose: 16.5 mg/kg/injection, schedule: Q04DX003 (ip), vehicle: other): 294 % of control
T/C (dose: 25.0 mg/kg/injection, schedule: Q04DX003 (ip), vehicle: other): 150 % of control
T/C (dose: 25.0 mg/kg/injection, schedule: Q04DX003 (ip), vehicle: saline sonified): 159 % of control
T/C (dose: 50.0 mg/kg/injection, schedule: Q04DX003 (ip), vehicle: saline sonified): 159 % of control
T/C (dose: 100.0 mg/kg/injection, schedule: Q04DX003 (ip), vehicle: saline sonified): 168 % of control

Fc1c(Cl)c(Cl)c(Cl)c(Cl)c1Cl
T/C (dose: 44.0 mg/kg/injection, schedule: Q01DX009 (ip), vehicle: other): 104 % of control
T/C (dose: 66.0 mg/kg/injection, schedule: Q01DX009 (ip), vehicle: other): 100 % of control
T/C (dose: 100.0 mg/kg/injection, schedule: Q01DX009 (ip), vehicle: other): 95 % of control
T/C [1]: 100 % of control
T/C (dose: 150.0 mg/kg/injection, schedule: Q01DX009 (ip), vehicle: other): 91 % of control
T/C [5]: 105 % of control
T/C [2]: 90 % of control
T/C (dose: 400.0 mg/kg/injection, schedule: Q01DX009 (ip), vehicle: saline with Tween-80): 90 % of control
T/C [3]: 100 % of control

Cc1nc(N2CC2)nc(N2CC2)c1[N+](=O)[O-]
T/C (dose: 0.62 mg/kg/injection, schedule: Q01DX010 (ip), vehicle: saline): 122 % of control
T/C (dose: 0.63 mg/kg/injection, schedule: Q01DX010 (ip), vehicle: saline): 100 % of control

S=C1SCN(CCc2ccccc2)CN1CCc1ccccc1
T/C (dose: 6.25 mg/kg/injection, schedule: Q01DX009 (ip), vehicle: saline with Tween-80): 111 % of control
T/C (dose: 12.5 mg/kg/injection, schedule: Q01DX009 (ip), vehicle: saline with Tween-80): 102 % of control
T/C (dose: 25.0 mg/kg/injection, schedule: Q01DX009 (ip), vehicle: saline with Tween-80): 104 % of control
T/C [4]: 100 % of control

CCCCC(=O)N(c1ccc(Nc2c3ccccc3nc3cc([N+](=O)[O-])ccc23)cc1)S(C)(=O)=O
T/C (dose: 0.44 mg/kg/injection, schedule: Q01DX009 (ip), vehicle: saline with Tween-80): 167 % of control
T/C (dose: 0.66 mg/kg/injection, schedule: Q01DX009 (ip), vehicle: saline with Tween-80): 180 % of control
T/C (dose: 1.0 mg/kg/injection, schedule: Q01DX009 (ip), vehicle: saline with Tween-80): 194 % of control
T/C (dose: 1.5 mg/kg/injection, schedule: Q01DX009 (ip), vehicle: saline with Tween-80): 205 % of control
T/C (dose: 2.2 mg/kg/injection, schedule: Q04DX003 (ip), vehicle: saline with Tween-80): 154 % of control
T/C (dose: 3.3 mg/kg/injection, schedule: Q04DX003 (ip), vehicle: saline with Tween-80): 150 % of control
T/C [6]: 186 % of control
T/C (dose: 12.5 mg/kg/injection, schedule: Q04DX003 (ip), vehicle: saline with Tween-80): 218 % of control
T/C (dose: 22.0 mg/kg/injection, schedule: Q04DX003 (ip), vehicle: saline with Tween-80): 250 % of control
T/C (dose: 25.0 mg/kg/injection, schedule: Q04DX003 (ip), vehicle: saline with Tween-80): 245 % of control
T/C (dose: 33.0 mg/kg/injection, schedule: Q04DX003 (ip), vehicle: saline with Tween-80): 175 % of control and 209 % of control
T/C (dose: 50.0 mg/kg/injection, schedule: Q04DX003 (ip), vehicle: saline with Tween-80): 225 % of control and 272 % of control and 181 % of control
T/C (dose: 75.0 mg/kg/injection, schedule: Q04DX003 (ip), vehicle: saline with Tween-80): 109 % of control and 204 % of control
